# Results: US20160297833A1, “THIENOPYRIMIDINES AS MKNK1 AND MKNK2 INHIBITORS” (BAYER PHARMA AKTIENGESELLSCHAFT, priority 2013, published 2016)
# Target: T1, human full-length MKNK1 (Homo sapiens, UniProt Q9BUB5, T385D)
# T1 construct: GST (N); purchased Carna Biosciences 02-145; host or cells: insect cells (baculovirus expression system)
# Test: MKNK1 kinase high ATP assay (TR-FRET)
# Assay type: biochemical
# Settings: Table 1; MKNK1 kinase high ATP assay, 2 mM ATP; read-out: MKNK1 IC50
# Method in brief: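 Full-length human MKNK1 (T385D) preincubated 15 min at 22 °C with compound in HEPES pH 7.5/MgCl2/DTT buffer; reaction with 2 mM ATP (final) and 0.06 μM biotinylated peptide (final), 30 min at 22 °C.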
# T1 sequence (Q9BUB5 1-424 isoform Q9BUB5-2 T344D): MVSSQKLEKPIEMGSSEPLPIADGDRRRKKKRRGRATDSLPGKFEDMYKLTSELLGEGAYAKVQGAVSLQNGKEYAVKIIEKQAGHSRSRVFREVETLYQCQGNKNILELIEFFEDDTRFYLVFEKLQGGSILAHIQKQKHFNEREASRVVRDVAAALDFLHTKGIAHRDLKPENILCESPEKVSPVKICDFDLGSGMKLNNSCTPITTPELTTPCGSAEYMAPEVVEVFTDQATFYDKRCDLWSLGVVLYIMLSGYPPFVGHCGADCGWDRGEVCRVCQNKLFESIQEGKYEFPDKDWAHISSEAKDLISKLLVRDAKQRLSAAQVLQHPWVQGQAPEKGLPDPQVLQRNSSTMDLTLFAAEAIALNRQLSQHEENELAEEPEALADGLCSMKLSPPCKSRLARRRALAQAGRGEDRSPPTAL
row,IC50,Compound
1,0.4 nM,"COc1cc2[nH]ncc2cc1Nc1ncnc2sc3c(c12)CC[C@H](C(=O)N1CC[C@@H](N(C)C)C1)C3 [Example 179, [(3R)-3-(Dimethylamino)pyrrolidin-1-yl]{(7S)-4-[(6-methoxy-1H-indazol-5-yl)amino]-5,6,7,8-tetrahydro[1]benzothieno[2,3-d]pyrimidin-7-yl}methanone]"
2,0.4 nM,"CN(C)C(=O)[C@H]1CCc2c(sc3ncnc(Nc4cc5cn[nH]c5cc4OCCCNC(=O)OC(C)(C)C)c23)C1 [Example 180, tert-Butyl {3-[(5-{[(7S)-7-(dimethylcarbamoyl)-5,6,7,8-tetrahydro[1]benzothieno[2,3-d]pyrimidin-4-yl]amino}-1H-indazol-6-yl)oxy]propyl}carbamate]"
3,3.6 nM,"CN(C)C(=O)[C@H]1CCc2c(sc3ncnc(Nc4cc5cn[nH]c5cc4Br)c23)C1 [Example 181, (7S)-4-[(6-Bromo-1H-indazol-5-yl)amino]-N,N-dimethyl-5,6,7,8-tetrahydro[1]benzothieno[2,3-d]pyrimidine-7-carboxamide]"
4,5.3 nM,"CN(C)C(=O)[C@H]1CCc2c(sc3ncnc(Nc4cc5cn[nH]c5cc4Cl)c23)C1 [Example 182, (7S)-4-[(6-Chloro-1H-indazol-5-yl)amino]-N,N-dimethyl-5,6,7,8-tetrahydro[1]benzothieno[2,3-d]pyrimidine-7-carboxamide]"
5,0.7 nM,"C[C@@H]1CN(C(=O)[C@H]2CCc3c(sc4ncnc(Nc5cc6cn[nH]c6cc5N5CCCC5)c34)C2)C[C@H](C)O1 [Example 183, [(2R,6S)-2,6-Dimethylmorpholin-4-yl][(7S)-4-{[6-(pyrrolidin-1-yl)-1H-indazol-5-yl]amino}-5,6,7,8-tetrahydro[1]benzothieno[2,3-d]pyrimidin-7-yl]methanone]"
6,0.4 nM,"C[C@@H]1COCCN1C(=O)[C@H]1CCc2c(sc3ncnc(Nc4cc5cn[nH]c5cc4N4CCCC4)c23)C1 [Example 184, [(3R)-3-Methylmorpholin-4-yl][(7S)-4-{[6-(pyrrolidin-1-yl)-1H-indazol-5-yl]amino}-5,6,7,8-tetrahydro[1]benzothieno[2,3-d]pyrimidin-7-yl]methanone]"
7,0.6 nM,"C[C@H]1COCCN1C(=O)[C@H]1CCc2c(sc3ncnc(Nc4cc5cn[nH]c5cc4N4CCCC4)c23)C1 [Example 185, [(3S)-3-Methylmorpholin-4-yl][(7S)-4-{[6-(pyrrolidin-1-yl)-1H-indazol-5-yl]amino}-5,6,7,8-tetrahydro[1]benzothieno[2,3-d]pyrimidin-7-yl]methanone]"
8,44.7 nM,"CN(C)C(=O)[C@H]1CCc2c(sc3ncnc(Nc4cc5cn[nH]c5cc4S(C)(=O)=O)c23)C1 [Example 186, (7S)—N,N-Dimethyl-4-{[6-(methylsulfonyl)-1H-indazol-5-yl]amino}-5,6,7,8-tetrahydro[1]benzothieno[2,3-d]pyrimidine-7-carboxamide]"
9,0.2 nM,"C[C@@H]1COCCN1C(=O)[C@H]1CCc2c(sc3ncnc(Nc4cc5cn[nH]c5cc4N(C)C)c23)C1 [Example 187, [(7S)-4-{[6-(Dimethylamino)-1H-indazol-5-yl]amino}-5,6,7,8-tetrahydro[1]benzothieno[2,3-d]pyrimidin-7-yl][(3R)-3-methylmorpholin-4-yl]methanone]"
10,0.3 nM,"C[C@H]1COCCN1C(=O)[C@H]1CCc2c(sc3ncnc(Nc4cc5cn[nH]c5cc4N(C)C)c23)C1 [Example 188, [(7S)-4-{[6-(Dimethylamino)-1H-indazol-5-yl]amino}-5,6,7,8-tetrahydro[1]benzothieno[2,3-d]pyrimidin-7-yl][(3S)-3-methylmorpholin-4-yl]methanone]"
11,0.1 nM,"C[C@@H]1CN(C(=O)[C@H]2CCc3c(sc4ncnc(Nc5cc6cn[nH]c6cc5N(C)C)c34)C2)C[C@H](C)O1 [Example 189, [(7S)-4-{[6-(Dimethylamino)-1H-indazol-5-yl]amino}-5,6,7,8-tetrahydro[1]benzothieno[2,3-d]pyrimidin-7-yl][(2R,6S)-2,6-dimethylmorpholin-4-yl]methanone]"
